In patent US10294229B2, “Heteroaryl substituted aminopyridine compounds” (BRISTOL-MYERS SQUIBB COMPANY, priority 2015, dated 2019):

Target: IRAK4 (Homo sapiens (Human), UniProt Q9NWZ3)
Test: IRAK4 Inhibition Assay
Assay type: biochemical
Conditions: ATP 500 μM; IRAK4 0.6 nM
Method: The assays were performed in U-bottom 384-well plates. The final assay volume was 30 μL prepared from 15 μL additions of enzyme and substrates (fluoresceinated peptide and ATP) and test compounds in assay buffer (20 mM HEPES pH 7.2, 10 mM MgCl2, 0.015% Brij 35 and 4 mM DTT). The reaction was initiated by the combination of IRAK4 with substrates and test compounds. The reaction mixture was incubated at room temperature for 60 min. and terminated by adding 45 μL of 35 mM EDTA to each sample. The reaction mixture was analyzed on the Caliper LABCHIP® 3000 (Caliper, Hopkinton, Mass.) by electrophoretic separation of the fluorescent substrate and phosphorylated product. Inhibition data were calculated by comparison to no enzyme control reactions for 100% inhibition and vehicle-only reactions for 0% inhibition. The final concentrations of reagents in the assays are ATP, 500 μM; FL-IPTSPITTTYFFFKKK peptide 1.5 μM; IRAK4, 0.6 nM; and DMSO, 1.6%.

Chain of IRAK4 (Q9NWZ3 whole entry, species assumed): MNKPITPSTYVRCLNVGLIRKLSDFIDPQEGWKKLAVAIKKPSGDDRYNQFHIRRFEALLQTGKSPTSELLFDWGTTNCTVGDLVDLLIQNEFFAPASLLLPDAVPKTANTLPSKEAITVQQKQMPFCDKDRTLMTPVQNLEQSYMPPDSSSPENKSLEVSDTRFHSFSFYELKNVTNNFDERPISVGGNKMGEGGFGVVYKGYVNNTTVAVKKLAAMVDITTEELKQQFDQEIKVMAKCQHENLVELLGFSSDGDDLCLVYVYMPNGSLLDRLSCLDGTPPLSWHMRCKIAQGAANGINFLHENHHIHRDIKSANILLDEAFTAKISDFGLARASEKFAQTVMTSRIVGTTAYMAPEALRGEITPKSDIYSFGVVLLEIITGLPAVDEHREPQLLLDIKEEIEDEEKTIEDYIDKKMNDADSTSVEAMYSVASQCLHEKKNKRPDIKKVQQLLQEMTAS

Row | SMILES | IC50 [nM]
1 | CCn1cc(-c2cnc(-n3ncc4cc(C#N)cnc43)cc2NC(C)C)cn1 [Example 253, 1-(5-(1-ethyl-1H-pyrazol-4-yl)-4-(isopropylamino)pyridin-2-yl)-1H-pyrazolo[3,4-b]pyridine-5-carbonitrile] | 65
2 | CC(C)Nc1cc(-n2ncc3cc(C#N)cnc32)ncc1-c1cn(-c2ccc(F)cc2)nn1 [Example 109, 1-(5-(1-(4-fluorophenyl)-1H-1,2,3-triazol-4-yl)-4-(isopropylamino)pyridin-2-yl)-1H-pyrazolo[3,4-b]pyridine-5-carbonitrile] | 217
3 | CC(C)Nc1cc(-n2ncc3cc(C#N)cnc32)ncc1-n1cc(C(C)(C)N)nn1 [Example 312, 1-(5-(4-(2-aminopropan-2-yl)-1H-1,2,3-triazol-1-yl)-4-(isopropylamino)pyridin-2-yl)-1H-pyrazolo[3,4-b]pyridine-5-carbonitrile] | 213
4 | CC(C)Nc1cc(-n2ncc3cc(C#N)cnc32)ncc1-c1cn(C[C@H](C)O)cn1 [Example 222, (S)-1-(5-(1-(2-hydroxypropyl)-1H-imidazol-4-yl)-4-(isopropylamino)pyridin-2-yl)-1H-pyrazolo[3,4-b]pyridine-5-carbonitrile] | 63
5 | CC(C)Nc1cc(-n2ncc3cc(Cl)cnc32)ncc1-c1cn(C2COC2)nn1 [Example 26, 2-(5-chloro-1H-pyrazolo[3,4-b]pyridin-1-yl)-N-isopropyl-5-(1-(oxetan-3-yl)-1H-1,2,3-triazol-4-yl)pyridin-4-amine] | 27
6 | COC(=O)N[C@H]1CC[C@H](c2cc(-c3cnc(-n4ncc5cc(C#N)cnc54)cc3NC(C)C)on2)CC1 [Example 411, methyl ((1s,4s)-4-(5-(6-(5-cyano-1H-pyrazolo[3,4-b]pyridin-1-yl)-4-(isopropylamino)pyridin-3-yl)isoxazol-3-yl)cyclohexyl)carbamate] | 3
7 | CC(C)Nc1cc(-n2ncc3cc(C#N)cnc32)ncc1-c1cn(Cc2cccnc2)cn1 [Example 235, 1-(4-(isopropylamino)-5-(1-(pyridin-3-ylmethyl)-1H-imidazol-4-yl)pyridin-2-yl)-1H-pyrazolo[3,4-b]pyridine-5-carbonitrile] | 30
8 | CC(C)Nc1cc(-n2ncc3cc(C#N)cnc32)ncc1-n1cc(Cc2ccccc2)cn1 [Example 243, 1-(5-(4-benzyl-1H-pyrazol-1-yl)-4-(isopropylamino)pyridin-2-yl)-1H-pyrazolo[3,4-b]pyridine-5-carbonitrile] | 62
9 | CC(C)Nc1cc(-n2ncc3cc(C#N)cnc32)ncc1-c1cnn(CC2COC2)c1 [Example 254, 1-(4-(isopropylamino)-5-(1-(oxetan-3-ylmethyl)-1H-pyrazol-4-yl)pyridin-2-yl)-1H-pyrazolo[3,4-b]pyridine-5-carbonitrile] | 190
10 | CC(C)Nc1cc(-n2ncc3cc(C#N)cnc32)ncc1-c1cn(-c2ccc(F)c(C#N)c2)nn1 [Example 104, 1-(5-(1-(3-cyano-4-fluorophenyl)-1H-1,2,3-triazol-4-yl)-4-(isopropylamino)pyridin-2-yl)-1H-pyrazolo[3,4-b]pyridine-5-carbonitrile] | 399
11 | CC(C)Nc1cc(-n2ncc3cc(C#N)cnc32)ncc1-c1cn(CC(O)Cc2ccccc2)nn1 (single isomer, unassigned) [Example 76, 1-(5-(1-(2-hydroxy-3-phenylpropyl)-1H-1,2,3-triazol-4-yl)-4-(isopropylamino)pyridin-2-yl)-1H-pyrazolo [3,4-b]pyridine-5-carbonitrile] | 7
12 | CC(C)Nc1cc(-n2ncc3cc(C#N)cnc32)ncc1-c1cn([C@@H]2CCN(C(=O)C(C)(C)C)C[C@H]2O)nn1 (single isomer, unassigned) [Example 200] | 5
13 | CC(=O)N[C@H]1CC[C@H](c2cc(-c3cnc(-n4ncc5cc(C#N)cnc54)cc3NC(C)C)on2)CC1 [Example 410, N-((1s,4s)-4-(5-(6-(5-cyano-1H-pyrazolo[3,4-b]pyridin-1-yl)-4-(isopropylamino)pyridin-3-yl)isoxazol-3-yl)cyclohexyl)acetamide] | 2
14 | CCCn1cc(-c2cnc(-n3ncc4cc(C#N)c(N)nc43)cc2NC2CCOCC2)nn1 [Example 51, 6-amino-1-(5-(1-propyl-1H-1,2,3-triazol-4-yl)-4-((tetrahydro-2H-pyran-4-yl)amino)pyridin-2-yl)-1H-pyrazolo[3,4-b]pyridine-5-carbonitrile] | 3
15 | CCC(C)(O)Cn1cc(-c2cnc(-n3cnc4cc(C#N)cnc43)cc2NC(C)C)nn1 (single isomer, unassigned) [Example 94, 3-(5-(1-(2-hydroxy-2-methylbutyl)-1H-1,2,3-triazol-4-yl)-4-(isopropylamino)pyridin-2-yl)-3H-imidazo[4,5-b]pyridine-6-carbonitrile] | 21
16 | CC(C)Nc1cc(-n2ncc3cc(C#N)cnc32)ncc1-n1cc(-c2ccncc2)nn1 [Example 326, 1-(4-(isopropylamino)-5-(4-(pyridin-4-yl)-1H-1,2,3-triazol-1-yl)pyridin-2-yl)-1H-pyrazolo [3,4-b]pyridine-5-carbonitrile] | 28
17 | CCCn1cc(-c2cnc(-n3ncc4cc(Cl)cnc43)cc2NC2CC2)nn1 [Example 36, 2-(5-chloro-1H-pyrazolo[3,4-b]pyridin-1-yl)-N-cyclopropyl-5-(1-propyl-1H-1,2,3-triazol-4-yl)pyridin-4-amine] | 11
18 | CC(C)Nc1cc(-n2ncc3cc(C#N)cnc32)ncc1-n1cc(CN)nn1 [Example 310, 1-(5-(4-(aminomethyl)-1H-1,2,3-triazol-1-yl)-4-(isopropylamino)pyridin-2-yl)-1H-pyrazolo[3,4-b]pyridine-5-carbonitrile] | 108
19 | CCCc1cn(-c2cnc(-n3ncc4cc(C#N)cnc43)cc2N[C@H](C)CO)nn1 [Example 272, (R)-1-(4-((1-hydroxypropan-2-yl)amino)-5-(4-propyl-1H-1,2,3-triazol-1-yl)pyridin-2-yl)-1H-pyrazolo[3,4-b]pyridine-5-carbonitrile] | 529
20 | CC(C)Nc1cc(-n2ncc3cc(C#N)cnc32)ncc1-c1cn(-c2cccc(O)c2)nn1 [Example 103, 1-(5-(1-(3-hydroxyphenyl)-1H-1,2,3-triazol-4-yl)-4-(isopropylamino)pyridin-2-yl)-1H-pyrazolo[3,4-b]pyridine-5-carbonitrile] | 172
21 | CC(C)Nc1cc(-n2ccc3cncnc32)ncc1-c1cn(Cc2cc(=O)[nH]c(=O)[nH]2)nn1 [Example 8, 6-((4-(4-(isopropylamino)-6-(7H-pyrrolo[2,3-d]pyrimidin-7-yl)pyridin-3-yl)-1H-1,2,3-triazol-1-yl)methyl)pyrimidine-2,4(1H,3H)-dione] | 7
22 | CC(C)Nc1cc(-n2ncc3cc(C#N)cnc32)ncc1-c1cnn(C(F)F)c1 [Example 260, 1-(5-(1-(difluoromethyl)-1H-pyrazol-4-yl)-4-(isopropylamino)pyridin-2-yl)-1H-pyrazolo[3,4-b]pyridine-5-carbonitrile] | 146
23 | CC(C)Nc1cc(-n2ncc3cc(C#N)cnc32)ncc1-c1cn(Cc2ccccc2)cn1 [Example 230, 1-(5-(1-benzyl-1H-imidazol-4-yl)-4-(isopropylamino)pyridin-2-yl)-1H-pyrazolo[3,4-b]pyridine-5-carbonitrile] | 27
24 | Cc1nc2cc(Cn3cc(-c4cnc(-n5ncc6cc(C#N)cnc65)cc4NC(C)C)nn3)ccc2s1 [Example 106, 1-(4-(isopropylamino)-5-(1-((2-methylbenzo[d]thiazol-5-yl)methyl)-1H-1,2,3-triazol-4-yl)pyridin-2-yl)-1H-pyrazolo[3,4-b]pyridine-5-carbonitrile] | 321
25 | CC(C)Nc1cc(-n2cnc3cc(C#N)cnc32)ncc1-c1cn(C[C@@H](C)O)nn1 [Example 68, (R)-3-(5-(1-(2-hydroxypropyl)-1H-1,2,3-triazol-4-yl)-4-(isopropylamino)pyridin-2-yl)-3H-imidazo[4,5-b]pyridine-6-carbonitrile] | 14
26 | CNC(=O)Cn1cnc(-c2cnc(-n3ncc4cc(C#N)cnc43)cc2NC(C)C)c1 [Example 238, 2-(4-(6-(5-cyano-1H-pyrazolo[3,4-b]pyridin-1-yl)-4-(isopropylamino)pyridin-3-yl)-1H-imidazol-1-yl)-N-methylacetamide] | 36
27 | COc1ccc(OCC(O)Cn2cc(-c3cnc(-n4ncc5cc(C#N)cnc54)cc3NC(C)C)nn2)cc1 (stereo not drawn) [Example 136, 1-(5-(1-(2-hydroxy-3-(4-methoxyphenoxy)propyl)-1H-1,2,3-triazol-4-yl)-4-(isopropylamino)pyridin-2-yl)-1H-pyrazolo[3,4-b]pyridine-5-carbonitrile] | 27
28 | CC(C)Nc1cc(-n2ncc3cc(Cl)cnc32)ncc1-c1cn(CC2CC2)nn1 [Example 27, 2-(5-chloro-1H-pyrazolo [3,4-b]pyridin-1-yl)-5-(1-(cyclopropylmethyl)-1H-1,2,3-triazol-4-yl)-N-isopropylpyridin-4-amine] | 16
29 | CC(C)Nc1cc(-n2ncc3cc(C#N)cnc32)ncc1-n1cc(-c2ccccn2)cn1 [Example 245, 1-(4-(isopropylamino)-5-(4-(pyridin-2-yl)-1H-pyrazol-1-yl)pyridin-2-yl)-1H-pyrazolo[3,4-b]pyridine-5-carbonitrile] | 334
30 | CC(C)Nc1cc(-n2ncc3cc(C#N)cnc32)ncc1-n1ccc(-c2cccnc2)n1 [Example 249, 1-(4-(isopropylamino)-5-(3-(pyridin-3-yl)-1H-pyrazol-1-yl)pyridin-2-yl)-1H-pyrazolo[3,4-b]pyridine-5-carbonitrile] | 47
